Values quoted from earlier work, collected in patent publication US8221792B2 (Farnam Companies, Inc., priority 2005, dated 2012).
Counter-ions that a name gives are not always drawn. Like-named read-outs stand apart in the source and are kept apart here.

What was measured:
[1] = in dogs
[2] = in human
[3] = in vivo

**Q.** For `COc1cccc([C@@]2(O)CCCC[C@@H]2CN(C)C)c1` (racemic) [tramadol, rac-(1R,2R)-2-(dimethylaminomethyl)-1-(3-methoxyphenyl)-cyclohexanol], which half-life [1] is on record?
**A.** The half-life was 0.8 to 1.7 h.

**Q.** And the half-life [2]?
**A.** The half-life was 5.6 to 7.0 h.

**Q.** Which results are given for `COc1cccc(C2(O)CCCCC2CN(C)C)c1` (centres unmarked) [Tramadol HCl]?
**A.** solubility in water: freely soluble; solubility in water (listed as tramadol hydrochloric acid salt): highly water soluble

**Q.** For `NCC1(CC(=O)O)CCCCC1` [Gabapentin], which elimination half-life [3] is on record?
**A.** Its elimination half-life is 5 to 7 h.
